Tested on: Plasmodium falciparum strain 3D7
Assay: Growth inhibition assay with or without chloroquine, strain 3D7 (Example 3)
Assay type: cell-based
Procedure: Each P. falciparum strain (BEI Resources) was first synchronized with 5% D-sorbitol following standard protocols at 3-5% hematocrit and 1-2% parasitaemia 20-24 hours prior to the start of the assay. Infected human erythrocytes were prepared at a starting parasitaemia of 0.4-0.7% and 2% hematocrit. Infected erythrocytes were combined with PfRH5-specific or control antibodies starting at a concentration of 666.67 nM with 1:5 serial dilution for each IgG1 antibody and chloroquine at one of two concentrations, 4.91 or 6.58 nM. […] The parasites were grown for 40-48 h until the schizont stage was reached (one complete life cycle). Parasite growth was stopped with three washes of cold PBS. Final parasitaemia was determined by measuring the parasite lactate dehydrogenase (LDH) activity. Percent growth inhibition was expressed relative to uninfected erythrocytes.

CCN(CC)CCCC(C)Nc1ccnc2cc(Cl)ccc12 (stereo not shown) [chloroquine, reference compound]
1025 of chloroquine with the susceptible 3D7 strain: 4.91 nM
